Molecular target: T1, rM3Ds (Rattus norvegicus, UniProt P08483, A177S/A238G/A489L/DEL261-437/DEL441-478/E258S/I253V/I483M/INS256[…]/K178L/K182A/K255R/K484R/K486H/L173F/L482A/M480V/R171S/R176Q/R179M/S481M/T174R/T181R/T257A/Y148C)
T1 sequence (P08483 with tags, fused parts or gaps Y148C/R171S/L173F/T174R/R176Q/A177S/K178L/R179M/T181R/K182A/A238G/I253V/K255R/INS256[…]/T257A/E258S/DEL261-437/DEL441-478/M480V/S481M/L482A/I483M/K484R/K486H/A489L): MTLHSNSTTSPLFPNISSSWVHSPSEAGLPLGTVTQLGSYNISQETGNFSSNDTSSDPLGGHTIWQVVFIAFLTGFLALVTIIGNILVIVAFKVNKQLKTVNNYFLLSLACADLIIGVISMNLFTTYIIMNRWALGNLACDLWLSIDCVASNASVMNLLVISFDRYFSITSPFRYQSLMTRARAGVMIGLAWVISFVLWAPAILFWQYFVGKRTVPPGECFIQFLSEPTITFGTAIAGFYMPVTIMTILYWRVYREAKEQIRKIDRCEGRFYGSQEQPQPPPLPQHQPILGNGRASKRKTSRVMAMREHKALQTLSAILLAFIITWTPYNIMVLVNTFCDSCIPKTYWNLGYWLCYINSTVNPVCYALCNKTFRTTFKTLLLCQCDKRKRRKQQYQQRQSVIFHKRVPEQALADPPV
Test: Striatal slice whole-cell recordings of retrogradely labeled D1-MSNs, rM3Ds
Type: cell-based, mice
Design: 2A-EYFP (C); expressed in transfected cells; host or cells: neurons (striatal D1-MSNs) of mice or cynomolgus macaques, transduced in vivo by nigral AAV8R12-G88P7-rM3Ds-2A-EYFP
Settings: AAV8R12-G88P7-rM3Ds-2A-EYFP; CNO 10 μM; basal firing rate and resting membrane potential unaffected
Description: Mice from different groups were anesthetized with […] isoflurane, and then decapitated. The brain was quickly extracted and placed in ice-cold N-methyl-D-glucamine (NMDG) cutting solution containing (in mM): 92 NMDG, 2.5 KCl, 25 NaHCO3, 1.25 NaH2PO4, 4.5 D-Glucose, 20 HEPES, 5 L-ascorbic acid, 3 Na-pyruvate, 2 Thiourea, 10 MgSO4, 0.5 CaCl2). The pH was adjusted to 7.2±0.1 using HCl and the osmolarity was adjusted to 305±5 mosmol/L using NMDG. The solution was bubbled with 95% O2/5% CO2 prior to use. Coronal striatum slices were cut in 250-[…]m thickness with a vibratome slicer (Leica, VT1200 S), and then incubated in artificial cerebrospinal fluid (aCSF) saturated with 95% O2/5% CO2 for at least 45 min at 37° C. before recording. The aCSF contains (in mM) 125 NaCl, 1.25 KCl, 25 NaHCO3, 1.25 KH2PO4, 25 D-Glucose, 2 CaCl2) and 1 MgCl2, supplemented with 2 mM Na-pyruvate, 3 mM Myo-inositol and 0.4 mM L-ascorbic acid.
The acute striatum slice was transferred to the recording chamber with a constant perfusion of oxygenized aCSF at the rate of 3 ml/min. Neurons were visualized using an upright microscope (Olympus, BX-51) with a 40× water immersion objective at room temperature (˜25° C.). […] Neurons were quickly visualized under fluorescence microscope and then patch clamp were achieved under infrared light illumination and CCD camera. […]

## C[N+]1([O-])CCN(C2=Nc3cc(Cl)ccc3Nc3ccccc32)CC1 [CNO, Clozapine-N-oxide]
  excitability of labeled striatal MSNs upon CNO: enhancement in the excitability

— patent publication US20250382346A1, “NEURONAL PROMOTERS AND USES THEREOF” (priority 2023, published 2025)
